Data taken from ChEMBL document CHEMBL4831493 (Eur J Med Chem, 2021).

What was measured:
[1] = biological target: Glycogen synthase kinase-3 beta (Homo sapiens, UniProt P49841); assay: Inhibition of human recombinant N-terminal His-tagged GSK3beta expressed in Escherichia coli using RRRPASVPPSPSLS RHS(pS)HQRR as substrate incubated for 30 mins in presence of ATP by Kinase-Glo reagent based luminescence assay
[2] = biological target: Acetylcholinesterase (Electrophorus electricus, UniProt O42275); assay: Inhibition of electric eel recombinant AChE preincubated for 1 min in presence of DNTB followed by addition of acetylthiocholine iodide substrate and measured after 20 mins by Ellman's method
[3] = biological target: Acetylcholinesterase (Homo sapiens, UniProt P22303); assay: Inhibition of human recombinant AChE preincubated for 1 min in presence of DNTB followed by addition of acetylthiocholine iodide substrate and measured after 20 mins by Ellman's method
Chain of Acetylcholinesterase (Homo sapiens, UniProt P22303) (P22303 whole entry): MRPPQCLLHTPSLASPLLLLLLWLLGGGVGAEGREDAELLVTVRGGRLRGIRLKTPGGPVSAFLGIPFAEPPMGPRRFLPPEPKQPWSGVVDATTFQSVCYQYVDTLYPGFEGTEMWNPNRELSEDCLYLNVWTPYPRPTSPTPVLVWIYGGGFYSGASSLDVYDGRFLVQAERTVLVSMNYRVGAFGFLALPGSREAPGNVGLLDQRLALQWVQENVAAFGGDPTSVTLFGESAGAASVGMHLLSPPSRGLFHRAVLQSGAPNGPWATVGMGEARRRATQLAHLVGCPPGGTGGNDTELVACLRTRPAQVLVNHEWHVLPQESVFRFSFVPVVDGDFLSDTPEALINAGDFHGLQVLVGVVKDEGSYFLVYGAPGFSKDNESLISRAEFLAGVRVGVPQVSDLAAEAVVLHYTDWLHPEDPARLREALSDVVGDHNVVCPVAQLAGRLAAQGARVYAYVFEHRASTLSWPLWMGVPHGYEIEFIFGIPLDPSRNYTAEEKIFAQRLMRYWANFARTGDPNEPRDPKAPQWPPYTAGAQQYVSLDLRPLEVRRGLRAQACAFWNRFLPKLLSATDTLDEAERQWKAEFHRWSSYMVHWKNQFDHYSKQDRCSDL

Chain of Glycogen synthase kinase-3 beta (P49841 whole entry): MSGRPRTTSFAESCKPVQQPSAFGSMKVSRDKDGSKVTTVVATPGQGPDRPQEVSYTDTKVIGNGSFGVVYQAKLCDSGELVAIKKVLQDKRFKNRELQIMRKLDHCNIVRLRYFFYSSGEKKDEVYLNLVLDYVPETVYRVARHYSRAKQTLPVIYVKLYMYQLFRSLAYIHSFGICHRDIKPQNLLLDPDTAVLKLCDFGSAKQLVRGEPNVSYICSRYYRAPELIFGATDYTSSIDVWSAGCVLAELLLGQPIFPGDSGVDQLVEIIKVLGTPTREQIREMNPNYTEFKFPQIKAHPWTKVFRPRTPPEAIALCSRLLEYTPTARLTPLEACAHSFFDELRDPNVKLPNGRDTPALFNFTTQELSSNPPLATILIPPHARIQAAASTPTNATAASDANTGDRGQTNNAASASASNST
Chain of Acetylcholinesterase (Electrophorus electricus, UniProt O42275) (O42275 whole entry): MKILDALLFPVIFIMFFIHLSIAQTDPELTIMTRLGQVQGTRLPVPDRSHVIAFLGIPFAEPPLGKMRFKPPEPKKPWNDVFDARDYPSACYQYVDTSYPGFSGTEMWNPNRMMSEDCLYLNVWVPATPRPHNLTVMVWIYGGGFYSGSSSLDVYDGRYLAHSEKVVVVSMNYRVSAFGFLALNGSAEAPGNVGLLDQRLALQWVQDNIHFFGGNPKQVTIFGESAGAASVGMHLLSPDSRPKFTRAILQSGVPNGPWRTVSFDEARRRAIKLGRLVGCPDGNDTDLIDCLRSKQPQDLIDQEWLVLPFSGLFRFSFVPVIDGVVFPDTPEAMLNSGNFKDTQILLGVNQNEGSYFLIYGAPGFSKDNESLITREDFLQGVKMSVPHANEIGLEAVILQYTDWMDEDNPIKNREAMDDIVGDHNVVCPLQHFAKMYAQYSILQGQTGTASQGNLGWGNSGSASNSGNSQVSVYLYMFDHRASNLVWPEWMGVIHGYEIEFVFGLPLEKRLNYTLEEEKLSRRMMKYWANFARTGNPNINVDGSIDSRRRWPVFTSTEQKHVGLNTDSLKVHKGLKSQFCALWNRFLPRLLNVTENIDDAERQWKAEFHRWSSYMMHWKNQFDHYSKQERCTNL

SMILES | IC50 [1] [nM] | IC50 [2] [nM] | IC50 [3] [nM]
O=C(NCC1CCN(Cc2cccc(Cl)c2)CC1)c1cncc(NC(=O)c2ccnc(NC(=O)C3CC3)c2)c1 | 231 | 678 | 1090
O=C(NCC1CCN(Cc2ccc(F)c(F)c2)CC1)c1cncc(NC(=O)c2ccnc(NC(=O)C3CC3)c2)c1 | 279 | 1050 | 3070
O=C(CC1CCN(Cc2ccc(F)cc2)CC1)Nc1n[nH]c2cc(-c3cccnc3)ccc12 | > 10000 | 216 | 518
O=C(CC1CCN(Cc2ccccc2)CC1)Nc1n[nH]c2cc(-c3cccnc3)ccc12 | > 10000 | 264 | 509
O=C(NCC1CCN(Cc2cccc(Cl)c2)CC1)c1cncc(NC(=O)c2ccnc3[nH]ccc23)c1 | > 10000 | 874 | 1310
O=C(CC1CCN(Cc2ccccc2F)CC1)Nc1n[nH]c2cc(-c3cccnc3)ccc12 | > 10000 | 390 | 691
O=C(Nc1cncc(OC2CCN(Cc3ccccc3)CC2)c1)c1ccnc(NC(=O)C2CC2)c1 | 734 | 9810 | > 10000
O=C(NC1CCN(Cc2ccccc2)CC1)c1cncc(NC(=O)c2ccnc3[nH]ccc23)c1 | 6800 | 311 | 358
O=C(NCC1CCN(Cc2ccccc2F)CC1)c1cncc(NC(=O)c2ccnc(NC(=O)C3CC3)c2)c1 | 164 | 1720 | 1760
O=C(NC1CCN(Cc2ccc(F)cc2)CC1)c1cncc(NC(=O)c2ccnc3[nH]ccc23)c1 | 4930 | 406 | 227
O=C(Nc1cncc(C(=O)NC2CCN(Cc3ccccc3)CC2)c1)c1ccnc(NC(=O)C2CC2)c1 | 81 | 704 | 622
Cc1ccccc1CN1CCC(CNC(=O)c2cncc(NC(=O)c3ccnc(NC(=O)C4CC4)c3)c2)CC1 | 157 | 3520 | 4090
O=C(Nc1cncc(OCC2CCN(Cc3ccccc3)CC2)c1)c1ccnc2[nH]ccc12 | 837 | 2.3 | 3.9
CC(=O)Nc1cc(C(=O)Nc2cncc(OCC3CCN(Cc4ccc(F)cc4)CC3)c2)ccn1 | 3510 | 16 | 9
O=C(Nc1cncc(C(=O)NC2CCN(Cc3cccc(Cl)c3)CC2)c1)c1ccnc(NC(=O)C2CC2)c1 | 63 | 951 | 2500
